According to patent US5444042A, “Method of treatment of neurodegeneration with calpain inhibitors” (Cortex Pharmaceuticals, priority 1994, dated 1995):
Where a SMILES comes first, the peptide text is derived from it. The star is where a group is joined. Cbz = O=C(OCc1ccccc1)*; CH2Cl = ClC*

What was measured:
Calpain II [1] = assay: Kapp/[I] progress curve method, Calpain II (Table 1C); assay type: biochemical; set-up: unit not given here; conditions: Rabbit Calpain II, Suc-leu-tyr-amidomethylcoumarin
Description: The Halo-Ketone Peptides, like the substituted isocoumarins, are irreversible inhibitors of Calpain. We determined the Kapp /[I] values for various members of this class of compounds against Calpains I and II. For comparison, we also determined these values against the additional thiol proteases Papain and Cathepsin B for at least one Halo-Ketone Peptide.
We assayed Calpain I and II using Suc-leu-tyr-amidomethylcoumarin. Papain was assayed using benzoyl-arg-4-nitroanilide, and Cathepsin B (bovine) was assayed using CBZ-lys-4-nitrophenyl ester. We followed the progress curve method of Tian and Tsou, Biochemistry, 21:1028-1032 (1982), the disclosure of which is hereby incorporated by reference, to derive kinetic data. Briefly, this method makes use of the equation: [formula] where [P.infin. ] represents the concentration of product formed at a time approaching infinity, A is the Kapp in the presence of substrate (S), K is the Michaelis constant and [Y] is the concentration of the inhibitor. Since [S] and [Y] are known and V and K can be determined, Kapp can be readily determined.

Calpain within platelets = assay: Platelet membrane permeation assay, spectrin proteolysis (Examples 4A, 4B); assay type: cell-based, rat; conditions: for IC50: concentration at which 50% of the Calpain activation present in controls occurred; for inhibition of Calpain within platelets: A23187 1 μM
In short: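 Rat (Sprague-Dawley) platelets at 10^7 cells/ml in HEPES buffer pH 7.4, preincubated 5 min with inhibitor, then 5 min with 1 μM A23187 to activate calpain. Spectrin proteolysis assessed by SDS-PAGE and anti-spectrin immunoblot, quantified by densitometry.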

PP Elastase = PP Elastase (Sus scrofa, UniProt P00772); assay: PP Elastase KI (Table 1B(ii)); assay type: biochemical
Source text: (§1) We tested the ability of an additional group of Peptide Keto-Compounds to inhibit several proteases in order to evaluate their specificity for Calpain.

[2] = Stability in liver homogenates; assay type: in vitro ADME; conditions: unit assumed
Source text: (§2) We determined the haft-life of several Peptide Keto-Compounds in both plasma and liver homogenates.

Stability in plasma = assay type: in vitro ADME; conditions: unit assumed
Source text: as §2

Cathepsin B = Cathepsin B (Bos taurus, UniProt P07688); assay: Cathepsin B KI (Table 1B(ii)); assay type: biochemical; conditions: read-out: KI CathB
Source text: as §1

Calpain II [3] = assay: Calpain II KI (Table 1B(ii)); assay type: biochemical
Source text: as §1

Chym = Chym (Bos taurus, UniProt P00766); assay: Chym KI (Table 1B(ii)); assay type: biochemical
Source text: as §1

[4] = test system: Calpain in crude brain extracts; assay: Ca2+-stimulated spectrin proteolysis in crude brain extracts (Example 2); assay type: biochemical; conditions: 100 μM
Description: The activity of Calpain in crude brain extracts was measured by examining the Ca^2+ -stimulated proteolysis of the endogenous substrate spectrin. Brain tissue was homogenized in 10 mM Tris pH=7.4, 0.32M sucrose, 1 mM EGTA, 1 mM dithiothreitol and the nuclei and debris removed by low speed centrifugation. […] Proteolysis of spectrin was evaluated by western blot as described by Seubert, et at. (Brain Research, 459:226-232, 1988), the disclosure of which is hereby incorporated by reference. Briefly, a known quantity of a spectrin-containing sample treated with Calpain is separated by SDS-PAGE and immunoblotted with anti-spectrin antibody. The amount of spectrin immunoreactivity found corresponding to the characteristic BDP's is indicative of the amount of […] activity present in the sample. An examplary method for quantitating BDP's is to assay Spectrin BDP's by homogenizing brain parts in 20 mM Tris pH=7.2, 0.32M sucrose, 50 μM Ac-Leu-Leu-nLeu-H on ice. Homogenates are then mixed 1:1 with 10% SDS, 5% β-mercaptoethanol, 10% glycerol, 10 mM Tris pH=8.0, 0.5% bromophenolblue, heated to 95° C., and subjected to electrophoresis in 41/2% polyacrylamide gels. The proteins in the gels are transferred to nitrocellulose and the spectrin and BDP's detected using a rabbit polyclonal anti-spectrin antibody and established immunodetection methods. The amount of spectrin and BDP's in each sample can be quantitated by densitrometric scanning of the developed nitrocellulose.

Calpain I [5] = target: T1, Calpain I (Homo sapiens, UniProt P07384); assay: Calpain I 14C-methylated casein proteolysis (Table 1A); assay type: biochemical
T1 sequence (P07384 1-714): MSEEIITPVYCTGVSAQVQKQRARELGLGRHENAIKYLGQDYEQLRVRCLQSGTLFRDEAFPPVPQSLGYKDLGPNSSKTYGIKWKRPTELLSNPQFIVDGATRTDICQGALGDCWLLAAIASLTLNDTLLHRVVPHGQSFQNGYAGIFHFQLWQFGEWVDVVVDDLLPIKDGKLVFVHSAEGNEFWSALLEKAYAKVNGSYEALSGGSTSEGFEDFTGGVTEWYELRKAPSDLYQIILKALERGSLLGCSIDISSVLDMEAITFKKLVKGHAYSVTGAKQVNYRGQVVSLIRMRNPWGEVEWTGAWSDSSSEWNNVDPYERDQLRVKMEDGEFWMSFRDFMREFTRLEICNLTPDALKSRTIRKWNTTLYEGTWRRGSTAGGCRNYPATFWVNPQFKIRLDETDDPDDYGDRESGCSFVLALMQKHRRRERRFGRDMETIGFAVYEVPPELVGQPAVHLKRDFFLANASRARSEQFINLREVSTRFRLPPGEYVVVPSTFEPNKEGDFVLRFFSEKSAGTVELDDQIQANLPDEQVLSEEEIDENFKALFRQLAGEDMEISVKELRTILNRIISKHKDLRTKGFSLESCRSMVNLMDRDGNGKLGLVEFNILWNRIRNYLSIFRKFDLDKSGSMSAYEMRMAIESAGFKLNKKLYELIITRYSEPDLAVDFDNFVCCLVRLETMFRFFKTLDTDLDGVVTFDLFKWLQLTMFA
T1 sequence (P04632 1-268 partner): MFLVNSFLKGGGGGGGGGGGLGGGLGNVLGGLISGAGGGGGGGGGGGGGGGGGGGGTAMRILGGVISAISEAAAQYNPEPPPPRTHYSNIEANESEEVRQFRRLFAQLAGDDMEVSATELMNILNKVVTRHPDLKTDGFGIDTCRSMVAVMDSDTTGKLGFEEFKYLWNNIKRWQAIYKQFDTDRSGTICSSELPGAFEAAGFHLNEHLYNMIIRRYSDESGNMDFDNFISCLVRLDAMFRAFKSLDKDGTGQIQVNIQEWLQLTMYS
Description: The isocoumarins are irreversible inhibitors of Calpain. We obtained IC50 values for a variety of these Calpain Inhibitors as a kinetic analysis of these compounds.
Calpains I and II were purified by the method of (Yoshimura, et al. 1983). (Kitahara 1984) provides an alternative purification scheme. Calpain II may alternatively be purchased from Sigma Chemical Co. as "Calcium Activated Neutral Protease." In this assay, purified Calpain was incubated with ^14 C-methylated casein in the presence of various Heterocyclic Compounds and the amount of acid-soluble radioactivity released by the action of Calpain was measured.

Calpain I [6] = target: T1, Calpain I; assay: Calpain I KI (Table 1B(ii)); assay type: biochemical; conditions: Table 1B(ii)
Source text: as §1

Papain = target: T2, Papain (Carica papaya, UniProt P00784); assay: Papain KI (Table 1B(ii)); assay type: biochemical
T2 sequence (P00784 134-345): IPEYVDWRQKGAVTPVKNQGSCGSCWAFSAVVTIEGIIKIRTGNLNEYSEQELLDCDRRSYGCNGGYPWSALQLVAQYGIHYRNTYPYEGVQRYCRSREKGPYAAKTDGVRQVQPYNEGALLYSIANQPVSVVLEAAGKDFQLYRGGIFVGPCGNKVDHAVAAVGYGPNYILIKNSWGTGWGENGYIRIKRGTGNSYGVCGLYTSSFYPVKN
Source text: as §1

Chain of PP Elastase (P00772 27-266): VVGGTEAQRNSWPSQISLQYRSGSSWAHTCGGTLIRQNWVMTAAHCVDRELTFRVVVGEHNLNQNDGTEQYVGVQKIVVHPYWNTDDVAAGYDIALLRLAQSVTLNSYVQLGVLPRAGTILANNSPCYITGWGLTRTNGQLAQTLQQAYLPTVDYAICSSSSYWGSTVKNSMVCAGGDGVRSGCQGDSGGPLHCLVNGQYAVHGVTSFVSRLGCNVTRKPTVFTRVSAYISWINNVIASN

Compound: CC(NC(=O)OCc1ccccc1)C(=O)NC(Cc1ccccc1)C(=O)CCl (stereo not drawn) [Z-Ala-Phe-CH2 Cl]
- Kapp/[I] CII (Calpain II [1]): 2400

Compound: CCCCNC(=O)C(=O)C(Cc1ccccc1)NC(=O)C(CC(C)C)NC(=O)OCc1ccccc1 (stereo not drawn) [Z-Leu-Phe-CONHnBu, Z-Leu-Phe-CONH-nBu]
- IC50 (Calpain within platelets): 38 µM
- Ki (PP Elastase): > 100 µM
- t1/2 liver [2]: > 1 h
- t1/2 plasma (Stability in plasma): > 1 h
- Ki (Cathepsin B): 3 µM
- Ki (Calpain II [3]): 0.028 µM
- Ki (Chym): 8 µM

Compound: N=C(N)SCCOc1oc(=O)c2cc(NC(=O)NCc3ccccc3)ccc2c1Cl [PhCH2 NHCONH-CiTEtOIC, 7-(benzylcarbamoylamino)-4-chloro-3-(2-isothiureidoethoxy)isocoumarin]
- inhibition of Calpain within platelets (Calpain within platelets; 100 μM): significant inhibition
- inhibition of spectrin proteolysis in crude brain extracts [4]: significant inhibition
- IC50 (Calpain I [5]): 90 µM

Compound: CCC(NC(=O)C(CC(C)C)NC(=O)OCc1ccccc1)C(=O)C(=O)O (stereo not drawn) [Z-Leu-Abu-COOH]
- inhibition of Calpain within platelets (Calpain within platelets; 100 μM): significant inhibition
- IC50 (Calpain within platelets): 8 µM
- Ki (PP Elastase): > 150 µM
- t1/2 liver [2]: > 1 h
- t1/2 plasma (Stability in plasma): > 1 h
- Ki (Calpain I [6]): 0.075 µM
- Ki (Cathepsin B): 1.5 µM
- Ki (Calpain II [3]): 0.022 µM
- Ki (Chym): > 150 µM

Compound: CC(=O)NC(C)C(=O)NC(C)C(=O)NC(C)C(=O)NC(C)C(=O)CCl (stereo not drawn) [Ac-Ala-Ala-Ala-Ala-CH2 Cl] (Ac-AAAA-CH2Cl; configuration not given here)
- Kapp/[I] CII (Calpain II [1]): 1300

Compound: N=C(N)SCCOc1oc(=O)c2cc(NC(=O)[C@H](N)Cc3ccccc3)ccc2c1Cl [D-Phe-NH-CiTEtOIC, 7-(D-phenylalanylamino)-4-chloro-3-(2-isothiureidoethoxy)isocoumarin]
- inhibition of Calpain within platelets (Calpain within platelets; 100 μM): significant inhibition
- inhibition of spectrin proteolysis in crude brain extracts [4]: significant inhibition
- IC50 (Calpain I [5]): 200 µM

Compound: CCCNC(=O)C(=O)C(Cc1ccccc1)NC(=O)C(CC(C)C)NC(=O)OCc1ccccc1 (stereo not drawn) [Z-Leu-Phe-CONHnPr, Z-Leu-Phe-CONH-nPr]
- IC50 (Calpain within platelets): 24 µM
- Ki (PP Elastase): > 300 µM
- t1/2 liver [2]: > 1 h
- t1/2 plasma (Stability in plasma): > 1 h
- Ki (Calpain I [6]): 15 µM
- Ki (Cathepsin B): 3 µM
- Ki (Calpain II [3]): 0.05 µM
- Ki (Chym): 18 µM

Compound: CCC(NC(=O)C(CC(C)C)NC(=O)OCc1ccccc1)C(=O)C(=O)NCc1ccccc1 (stereo not drawn) [Z-Leu-Abu-CONHBz, Z-Leu-Abu-CONH-Bzl]
- IC50 (Calpain within platelets): 1.5 µM
- t1/2 liver [2]: > 1 h
- t1/2 plasma (Stability in plasma): > 1 h
- Ki (Cathepsin B): 2 µM
- Ki (Calpain II [3]): 0.35 µM
- Ki (Chym): > 300 µM

Compound: CCCCNC(=O)C(=O)C(CC)NC(=O)C(CC(C)C)NC(=O)OCc1ccccc1 (stereo not drawn) [Z-Leu-Abu-CONHnBu, Z-Leu-Abu-CONH-nBu]
- IC50 (Calpain within platelets): 2 µM
- Ki (PP Elastase): 5 µM
- t1/2 liver [2]: > 1 h
- t1/2 plasma (Stability in plasma): > 1 h
- Ki (Calpain I [6]): 0.2 µM
- Ki (Cathepsin B): 13 µM
- Ki (Chym): > 300 µM

Compound: CC(C)C(NC(=O)OCc1ccccc1)C(=O)NC(Cc1ccccc1)C(=O)CCl (stereo not drawn) [Z-Val-Phe-CH2 Cl] (Cbz-Val-Phe-CH2Cl; configuration not given here)
- Kapp/[I] CII (Calpain II [1]): 27200

Compound: Z-Leu-Met-CO2 Et [Z-Leu-Met-COOEt]
- inhibition of Calpain within platelets (Calpain within platelets; 100 μM): significant inhibition
- platelet assay, semi-quantitative (Calpain within platelets; semi-quantitative, 100 μM): +
- Ki (PP Elastase): > 100 µM
- t1/2 plasma (Stability in plasma): 0.133 h
- Ki (Calpain I [6]): 1 µM
- Ki (Cathepsin B): 55 µM
- inhibition of spectrin proteolysis in crude brain extracts [4]: significant inhibition
- Ki (Calpain II [3]): 1.5 µM
- Ki (Chym): 1.75 µM
- Ki (Papain): 140 µM

Compound: CC(C)CC(NC(=O)OCc1ccccc1)C(=O)NC(Cc1ccccc1)C(=O)C(=O)O (stereo not drawn) [Z-Leu-Phe-COOH]
- inhibition of Calpain within platelets (Calpain within platelets; 100 μM): significant inhibition
- IC50 (Calpain within platelets): 6.5 µM
- Ki (PP Elastase): > 150 µM
- t1/2 liver [2]: > 1 h
- t1/2 plasma (Stability in plasma): > 1 h
- Ki (Calpain I [6]): 0.0085 µM
- Ki (Cathepsin B): 4.5 µM
- Ki (Calpain II [3]): 0.0057 µM
- Ki (Chym): 76 µM

Compound: N=C(N)SCCOc1oc(=O)c2cc(NC(=O)Cc3ccccc3)ccc2c1Cl [PhCH2 CONH-CiTEtOIC, 7-(phenylacetylamino)-4-chloro-3-(2-isothiureidoethoxy)isocoumarin]
- IC50 (Calpain I [5]): 30 µM

Compound: CCCNC(=O)C(=O)[C@H](CC)NC(=O)[C@H](CC(C)C)NC(=O)OCc1ccccc1 [Z-Leu-Abu-CONHnPr, Z-Leu-Abu-CONH-nPr]
- IC50 (Calpain within platelets): 70 µM
- Ki (PP Elastase): 2 µM
- t1/2 liver [2]: > 1 h
- t1/2 plasma (Stability in plasma): > 1 h
- Ki (Cathepsin B): 8 µM
- Ki (Calpain II [3]): 0.25 µM
- Ki (Chym): > 300 µM
